The assay addresses human dihydroorotate dehydrogenase (HsDHODH) (Homo sapiens, UniProt Q02127). Format: biochemical.

The values below come from paper PMC9329448 (Journal of Experimental Pharmacology, 2022).

Molecules are shown by their SMILES.

Sequence of human dihydroorotate dehydrogenase (HsDHODH) (Q02127 whole entry): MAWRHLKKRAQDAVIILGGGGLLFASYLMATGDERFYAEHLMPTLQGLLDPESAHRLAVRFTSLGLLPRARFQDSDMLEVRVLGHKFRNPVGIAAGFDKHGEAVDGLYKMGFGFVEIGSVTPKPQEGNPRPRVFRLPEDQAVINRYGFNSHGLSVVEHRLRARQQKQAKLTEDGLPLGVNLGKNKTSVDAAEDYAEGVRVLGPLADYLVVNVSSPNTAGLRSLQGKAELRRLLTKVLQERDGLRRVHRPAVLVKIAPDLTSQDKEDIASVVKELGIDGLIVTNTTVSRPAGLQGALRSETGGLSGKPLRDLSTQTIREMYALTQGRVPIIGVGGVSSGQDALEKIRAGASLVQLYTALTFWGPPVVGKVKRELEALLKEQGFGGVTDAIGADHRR

As a reminder, the IC50 is the concentration needed to halve the response being measured. Lower therefore signals greater potency. The compound `O=C(/C=C/c1ccc(O)c(O)c1)OCCc1ccccc1` [CAPE, caffeic acid phenethyl ester] came in with an IC50 of 121 ± 6.78 µM.
